Assay results taken from patent publication US7517857B2, “Immune-modulating peptide” (POSCO, priority 2002, dated 2009).
Where a SMILES comes first, the peptide text is derived from it. [ ]: non-standard residue; d: D form.

Tests used:
CT26, colon carcinoma = test: Tumor growth in CT26-injected Balb/c mice; assay type: in vivo
Procedure: (§1) CT26, EL4 were maintained at 37° C. in a humidified 5% CO2 atmosphere in RPMA1640 medium supplemented with 20% (vol/vol) heat-inactivated fetal bovine serum. For animal experiments, the cells were passaged two to five times after re-growth from frozen stocks. Log phase CT26 cells were detached from tissue culture flasks with 0.25% trypsin and 0.03% EDTA. CT26 and EL4 were washed and resuspended in PBS immediately before injection.
In order to assess the antitumor effect of immuno-modulating peptide, Trp-Arg-Tyr-Met-Val-D-Met-CONH2, (WRYMVm; (SEQ ID NO: 4)), CT26, colon carcinoma was tested in Balb/c mice model. Tumor mass was measured in size every two days after 6 days from tumor cell inoculation.
To find the effective tumor-suppressing dose of WRYMVm, 0.1 μg/mouse, 0.25 μg/mouse, and 1 μg/mouse of WRYMVm were administered to CT26/Balb/c model. […] A similar phenomenon is easily found in chemotactic migration of leukocytes. In view of the fact that FPRL1, which is a target receptor for WRYMVm, is related to the chemotactic migration event, it is concluded that WRYMVm-induced antitumor effect might be derived from leukocyte infiltration event. Therefore, it is quite necessary to reveal the direct relationship between the WRYMVm-induced antitumor effect and the leukocyte infiltration event.

FPR [1] = molecular target: T1, FPR (Homo sapiens, UniProt P21462); test: ERK phosphorylation in FPR-expressing RBL-2H3 cells (immunoblot); assay type: cell-based; conditions: pretreatment prior to 1 μM WKYMVm, PTX 100 ng/ml, LY294002 50 μM, GFX 5 μM, BAPTA/AM 10 μM, PD98059 50 μM
T1 construct: expressed in transfected cells; host or cells: RBL-2H3 (rat basophilic leukemia) cells, G418-selected
T1 sequence (P21462 1-350): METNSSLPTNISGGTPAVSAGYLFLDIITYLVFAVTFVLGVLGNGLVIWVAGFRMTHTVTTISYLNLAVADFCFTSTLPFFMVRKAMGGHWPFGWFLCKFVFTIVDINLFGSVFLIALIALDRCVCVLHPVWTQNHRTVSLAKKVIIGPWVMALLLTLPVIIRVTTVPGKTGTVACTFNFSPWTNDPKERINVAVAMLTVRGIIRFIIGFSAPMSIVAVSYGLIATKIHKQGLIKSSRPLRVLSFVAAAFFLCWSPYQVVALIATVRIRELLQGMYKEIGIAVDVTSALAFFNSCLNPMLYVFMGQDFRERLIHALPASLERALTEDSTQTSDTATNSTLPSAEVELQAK
Procedure: (§2) Cultured RBL-2H3 cells were aliquoted into 2×10^6 cells and stimulated with the indicated concentrations of WKYMVm and the peptides of the present invention for the indicated lengths of time. FPR- or FPRL1-expressing RBL-2H3 cells were stimulated with 1 μM WKYMVm for various periods of time (FIG. 3A). Two cells were preincubated with a vehicle or 100 ng/ml of PTX (24 hr), 50 μM of LY294002 (15 min), 5 μM of GFX (15 min), 10 μM BAPTA/AM (60 min), or 50 μM PD98059 (60 min) prior to 1 μM of WKYMVm treatment (FIG. 3B). FPR- or FPRL1-expressing RBL2H3 cells were stimulated with 10 μM of the peptides of the present invention for 2 min or 5 min, respectively (FIG. 3C).
(§3) After stimulation, the cells were washed with serum-free RPMI and lysed in a lysis buffer (20 mM Hepes, pH 7.2, 10% glycerol, 150 mM NaCl, 1% Triton X-100, 50 mM NaF, 1 mM Na3VO4, 10 μg/ml leupeptin, 10 μg/ml aprotinin, and 1 mM phenylmethylsulfonyl fluoride). The detergent-insoluble materials were pelleted by centrifugation (12,000×g, 15 min, at 4° C.), and the soluble supernatant fraction was removed and stored at −80° C. or used immediately. Protein concentrations in the lysates were determined using the Bradford protein assay reagent.
(§4) Each sample ([…] of protein) was subjected to 10% SDS-PAGE and phosphorylated ERK was determined by an immunoblot analysis with an anti-phospho-ERK antibody. Protein samples were prepared for electrophoresis by addition of a concentrated sample buffer. The portions in the samples were then separated by an 10% SDS-polyacrylamide gel using the buffer system described by Laemmli (17).
(§5) Following the electrophoresis, a western blot analysis with an anti-ERK2 antibody was performed to confirm that the same amounts of samples were used for the experiments. The proteins were blotted onto nitrocellulose membranes. The nitrocellulose membranes were then blocked by incubation with TBS (Tris-buffered saline, 0.05% Tween-20) containing 5% non-fat dry milk. Subsequently, the membranes were incubated with anti-phospho-ERK antibody, anti-phospho-Akt antibody or anti-Akt antibody washed with TBS. For a PKC translocation assay, an antibody for PKC isozyme-specific was incubated. Antigen-antibody complexes were visualized after incubating the membrane with a 1:5000 diluted goat anti-rabbit IgG or goat anti-mouse IgG antibody coupled to horseradish peroxidase and using the enhanced chemiluminescence detection system.

FPRL1 [2] = molecular target: T2, FPRL1 (Homo sapiens, UniProt P25090); test: ERK phosphorylation in FPRL1-expressing RBL-2H3 cells (immunoblot); assay type: cell-based; conditions: pretreatment prior to 1 μM WKYMVm, PTX 100 ng/ml, LY294002 50 μM, GFX 5 μM, BAPTA/AM 10 μM, PD98059 50 μM
T2 construct: expressed in transfected cells; host or cells: RBL-2H3 (rat basophilic leukemia) cells, G418-selected
T2 sequence (P25090 1-351): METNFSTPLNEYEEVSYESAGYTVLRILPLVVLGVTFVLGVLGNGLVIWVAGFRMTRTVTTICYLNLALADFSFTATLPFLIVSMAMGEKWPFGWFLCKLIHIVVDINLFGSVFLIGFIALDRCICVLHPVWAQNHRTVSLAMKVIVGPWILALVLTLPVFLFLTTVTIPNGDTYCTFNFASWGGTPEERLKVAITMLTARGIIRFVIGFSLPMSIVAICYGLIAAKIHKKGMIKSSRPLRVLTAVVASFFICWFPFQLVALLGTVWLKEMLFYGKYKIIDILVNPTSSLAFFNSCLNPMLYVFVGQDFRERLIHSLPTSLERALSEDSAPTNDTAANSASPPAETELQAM
Procedure: as §2, §3, §4, §5

FPR [3] = molecular target: T1, FPR; test: Exocytosis: β-hexosaminidase secretion in FPR-expressing RBL-2H3 cells; assay type: cell-based; conditions: FPR cells; 10 μM BAPTA/AM prior to 1 μM WKYMVm
Procedure: (§6) Granule secretion is one of the most important function of mast cells (20). The effect of WKYMVm on granule secretion was checked by measuring β-hexosaminidase secretion as described above (18). Briefly, RBL-2H3 cells (2×10^5/well) expressing FPR or FPRL1 were cultured overnight in a 24-well tissue culture plate. The cells were washed twice with Tyrode's buffer (137 mM NaCl, 12 mM NaHCO3, 5.6 mM glucose, 2.7 mM KCl, 1 mM CaCl2, 0.5 mM MgCl2, 0.4 mM NaH2PO4, 0.1g/100 ml BSA, and 25 mM HEPES, pH 7.4) and stimulated with each peptide. Various concentrations of WKYMVm were treated in FPR- or FPRL1-expressing RBL-2H3 cells (FIG. 5A). 1 μM of WKYMVm was used to stimulate two cell lines in the absence or presence of 10 μM BAPTA/AM (FIG. 5B). The reaction was terminated 20 min after stimulation by placing the plate on ice. Secretion of β-hexosaminidase into the medium was determined by incubating 50 μl of supernatant or cell lysate with 25 μl of 5 mM p-nitrophenyl-N-acetyl-β-D-glucosamide in 0.1 M sodium citrate buffer (pH 3.8) at 37° C. for 2 hr. At the end of the incubation, 50 μl of 0.4 M Na2CO3 were added. Absorbance was monitored at 405 nm. Data are means ±S.E. of a single representative of three experiments performed in triplicate. Values (means ±S.E.) were expressed as a percent of total β-hexosaminidase present in the cells.
From the new finding that cytosolic calcium release was induced by WKYMVm and many of the substituted peptides of WKYMVm but not by some of them (WKGMVm (SEQ ID NO: 1), WKRMVm (SEQ ID NO: 11), D-Met^6 substituted peptides), the effect of the peptides on granule secretion in RBL cells was checked. 10 μM of each peptide was treated in FPR- (FIG. 6A) or FPRL1-expressing RBL-2H3 cells (FIG. 6B). The peptide-induced secretion of β-hexosaminidase was determined as above. Data are means ±S.E. of a single representative of three experiments performed in triplicate.

FPRL1 [4] = molecular target: T2, FPRL1; test: Exocytosis: β-hexosaminidase secretion in FPRL1-expressing RBL-2H3 cells; assay type: cell-based; conditions: FPRL1 cells; 10 μM BAPTA/AM prior to 1 μM WKYMVm
Procedure: as §6
10 μM of each peptide was treated in FPR- (FIG. 6A) or FPRL1-expressing RBL-2H3 cells (FIG. 6B). The peptide-induced secretion of β-hexosaminidase was determined as above. Data are means ±S.E. of a single representative of three experiments performed in triplicate.

human neutrophils = test: Superoxide generation in human neutrophils (cytochrome c reduction); assay type: cell-based; conditions: for O^2− (nmol/10^6 cells), superoxide generation: cytochrome c reduction
Procedure: Peripheral blood leukocyte concentrates were donated by the Ulsan Red Cross Blood Center (Ulsan, Korea). Human neutrophils were isolated according to the standard procedures of dextran sedimentation, hypotonic lysis of erythrocytes, and a lymphocyte separation medium gradient as described above (9). The isolated human neutrophils were then used promptly.
The activity of the peptides, WKYMVm, peptides of SEQ ID NOs: 1 to 24, and wkymvm on superoxide generation in human neutrophils was measured. Superoxide anion generation was quantified by measuring reduction of cytochrome c using a microtiter 96-well plate ELISA reader (Bio-Tekinstruments, EL312e, Winooski, Vt.) as described (14). The human neutrophils (1×10^6 cells/100 μl of RPMI 1640 medium per well of a 96-well plate) were preincubated with 50 μM cytochrome c at 37° C. for 1 min and then incubated with the indicated concentrations of peptides. The superoxide generation was measured as a change in light absorption at 550 nm over 5 minutes at 1 min intervals. From at least four independent experiments, peptides with active amino acids at each position were chosen.

FPRL1 [5] = molecular target: T2, FPRL1; test: [Ca2+]i increase in FPRL1-expressing RBL-2H3 cells (fura-2); assay type: cell-based
Procedure: […] The level of [Ca^2+]i was determined fluorometrically by Grynkiewicz's method using fura-2/AM (15). Briefly, prepared cells were incubated with 3 μM fura-2/AM at 37° C. for 50 min in a fresh serum-free RPMI 1640 medium under continuous stirring. 2×10^6 cells were aliquoted for each assay in Ca^2+-free Locke's solution (154 mM NaCl, 5.6 mM KCl, 1.2 mM MgCl2, 5 mM HEPES, pH 7.3, 10 mM glucose, and 0.2 mM EGTA). Fluorescence changes at the dual excitation wavelengths of 340 nm and 380 nm and the emission wavelength of 500 nm were measured, and the calibrated fluorescence ratio was translated into [Ca^2+]i. The peak level of the increased [Ca^2+]i was monitored.
[…] The level of [Ca^2+]i was determined by the same procedures as above. The peak level of the increased [Ca^2+]i was monitored.

EL4, lymphoma cells = test: Tumor growth in EL4-injected C57/BL6 mice; assay type: in vivo; conditions: EL4 2×10^5 cells/mouse s.c.
Procedure: as §1
To confirm the antitumor effect of WRYMVm, another tumor model, EL4, lymphoma cells was tested. In order to form the tumor mass of EL4, EL4 (2×10^5 cells/mouse) were injected s.c to C57/BL6 mice. […] Overall, it appears obvious that WRYMVm has a tumor growth-suppressing effect in mice model.

## 5′-TCGTCGTTTTGTCGTTTTGTCGTT-3′ [CpG ODN, reference compound]
CT26, colon carcinoma; 100 μg/mouse i.p.
  effect on tumor growth: didn't show any effect on tumor growth
tumor; survival rate, FIG. 12B
  survival: failed to prevent death

## CC(=O)OCOC(=O)CN(CC(=O)OCOC(C)=O)c1ccccc1OCCOc1ccccc1N(CC(=O)OCOC(C)=O)CC(=O)OCOC(C)=O [BAPTA/AM]
FPR [1]
  effect of inhibitor pretreatment on WKYMVm-induced ERKs activation: could not effect WKYMVm-induced ERK activation
FPRL1 [2]
  effect of inhibitor pretreatment on WKYMVm-induced ERKs activation: could not effect WKYMVm-induced ERK activation
FPR [3]
  effect on WKYMVm-induced granule secretion: almost completely inhibited WKYMVm-induced granule secretion
FPRL1 [4]
  effect on WKYMVm-induced granule secretion: almost completely inhibited WKYMVm-induced granule secretion

## CSCC[C@H](NC(=O)[C@H](Cc1ccc(O)cc1)NC(=O)[C@H](CCCNC(=N)N)NC(=O)[C@@H](N)Cc1c[nH]c2ccccc12)C(=O)N[C@H](C(=O)N[C@H](CCSC)C(N)=O)C(C)C [WRYMVm-NH2, Trp-Arg-Tyr-Met-Val-D-Met-NH2] (H-WRYMV[dM]-NH2; N-terminus assumed)
Human neutrophils; 100 nM of peptides
  superoxide generating activity: stimulated superoxide generation
Human neutrophils; peptide 100 nM
  O^2− (nmol/10^6 cells), superoxide generation: 47.1 ± 11.23 nmol/10^6 cells
Human neutrophils; peptide 10 μM
  O^2− (nmol/10^6 cells), superoxide generation: 38.2 ± 6.54 nmol/10^6 cells
FPRL1 [5]
  [Ca^2+]i increasing activity: higher affinity to FPRL1
FPRL1 [5]; fura-2 loaded, read-out: EC50 (nM), intracellular calcium increase
  EC50: 0.12 ± 0.01 nM
CT26, colon carcinoma; 0.1 μg/mouse, compared with 0.25 and 1 μg/mouse
  tumor suppression: highest effectiveness in the tumor suppression
CT26, colon carcinoma; 1 μg/mouse
  tumor suppression: the tumor suppressing effect was lowered
CT26, colon carcinoma; FIGS. 9A and 9B
  tumor growth in CT26-injected mice (figure legend): attenuates tumor growth
EL4, lymphoma cells
  tumor mass suppression: able to suppress tumor mass of EL4
tumor; vincristine i.p. 2 μg/mouse 8 hours prior to peptide injection
  tumor growth suppression / antitumor activity: ability to suppress tumor growth
